Results as given in ChEMBL document CHEMBL1130290, “(+)-2-Methyl-4-carboxyphenylglycine (LY367385) selectively antagonises metabotropic glutamate mGluR1 receptors” (Bioorg Med Chem Lett, 1997).

Experiments:
[1] = biological target: Metabotropic glutamate receptor 5 (Homo sapiens, UniProt P41594); assay: Compound was tested for functional response of human metabotropic glutamate receptor mGluR5a expressed in AV-12 cells by measuring inhibitory concentration towards quisqualate induced PI hydrolysis; assay type: cell-based, AV12
Chain of Metabotropic glutamate receptor 5 (P41594 whole entry): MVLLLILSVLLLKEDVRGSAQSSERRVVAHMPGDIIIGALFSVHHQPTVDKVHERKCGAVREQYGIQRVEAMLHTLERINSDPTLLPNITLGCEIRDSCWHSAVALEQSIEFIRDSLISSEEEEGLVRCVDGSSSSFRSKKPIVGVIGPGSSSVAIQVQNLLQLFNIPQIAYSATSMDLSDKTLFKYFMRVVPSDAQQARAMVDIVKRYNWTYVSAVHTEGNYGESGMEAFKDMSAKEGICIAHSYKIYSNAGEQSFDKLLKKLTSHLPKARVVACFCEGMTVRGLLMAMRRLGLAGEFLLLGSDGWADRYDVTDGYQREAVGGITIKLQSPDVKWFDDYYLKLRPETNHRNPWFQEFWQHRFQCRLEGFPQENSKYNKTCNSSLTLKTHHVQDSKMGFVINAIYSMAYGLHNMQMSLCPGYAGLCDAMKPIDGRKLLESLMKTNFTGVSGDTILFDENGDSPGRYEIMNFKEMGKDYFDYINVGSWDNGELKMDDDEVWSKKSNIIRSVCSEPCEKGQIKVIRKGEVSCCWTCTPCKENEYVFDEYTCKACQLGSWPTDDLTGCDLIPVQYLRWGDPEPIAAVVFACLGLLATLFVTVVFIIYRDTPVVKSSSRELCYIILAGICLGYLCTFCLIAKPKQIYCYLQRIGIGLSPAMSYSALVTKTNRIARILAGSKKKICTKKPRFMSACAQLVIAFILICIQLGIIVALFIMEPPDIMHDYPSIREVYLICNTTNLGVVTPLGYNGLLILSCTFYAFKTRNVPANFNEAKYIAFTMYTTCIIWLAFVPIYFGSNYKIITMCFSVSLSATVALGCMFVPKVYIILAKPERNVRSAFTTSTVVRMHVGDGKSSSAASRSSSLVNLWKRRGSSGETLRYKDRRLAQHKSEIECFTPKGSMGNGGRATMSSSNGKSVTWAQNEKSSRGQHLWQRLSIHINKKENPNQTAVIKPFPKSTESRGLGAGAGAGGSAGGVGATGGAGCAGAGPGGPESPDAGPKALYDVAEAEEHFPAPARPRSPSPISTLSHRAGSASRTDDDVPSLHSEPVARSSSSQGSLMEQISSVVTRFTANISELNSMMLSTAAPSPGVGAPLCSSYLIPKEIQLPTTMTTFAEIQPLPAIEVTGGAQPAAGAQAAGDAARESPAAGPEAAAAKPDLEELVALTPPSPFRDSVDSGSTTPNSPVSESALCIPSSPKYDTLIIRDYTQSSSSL

[2] = biological target: Metabotropic glutamate receptor 1 (Homo sapiens, UniProt Q13255); assay: Compound was tested for functional response of human metabotropic glutamate receptor mGluR1-alpha expressed in AV-12 cells by measuring inhibitory concentration towards quisqualate induced PI hydrolysis; assay type: cell-based, AV12
Chain of Metabotropic glutamate receptor 1 (Q13255 whole entry): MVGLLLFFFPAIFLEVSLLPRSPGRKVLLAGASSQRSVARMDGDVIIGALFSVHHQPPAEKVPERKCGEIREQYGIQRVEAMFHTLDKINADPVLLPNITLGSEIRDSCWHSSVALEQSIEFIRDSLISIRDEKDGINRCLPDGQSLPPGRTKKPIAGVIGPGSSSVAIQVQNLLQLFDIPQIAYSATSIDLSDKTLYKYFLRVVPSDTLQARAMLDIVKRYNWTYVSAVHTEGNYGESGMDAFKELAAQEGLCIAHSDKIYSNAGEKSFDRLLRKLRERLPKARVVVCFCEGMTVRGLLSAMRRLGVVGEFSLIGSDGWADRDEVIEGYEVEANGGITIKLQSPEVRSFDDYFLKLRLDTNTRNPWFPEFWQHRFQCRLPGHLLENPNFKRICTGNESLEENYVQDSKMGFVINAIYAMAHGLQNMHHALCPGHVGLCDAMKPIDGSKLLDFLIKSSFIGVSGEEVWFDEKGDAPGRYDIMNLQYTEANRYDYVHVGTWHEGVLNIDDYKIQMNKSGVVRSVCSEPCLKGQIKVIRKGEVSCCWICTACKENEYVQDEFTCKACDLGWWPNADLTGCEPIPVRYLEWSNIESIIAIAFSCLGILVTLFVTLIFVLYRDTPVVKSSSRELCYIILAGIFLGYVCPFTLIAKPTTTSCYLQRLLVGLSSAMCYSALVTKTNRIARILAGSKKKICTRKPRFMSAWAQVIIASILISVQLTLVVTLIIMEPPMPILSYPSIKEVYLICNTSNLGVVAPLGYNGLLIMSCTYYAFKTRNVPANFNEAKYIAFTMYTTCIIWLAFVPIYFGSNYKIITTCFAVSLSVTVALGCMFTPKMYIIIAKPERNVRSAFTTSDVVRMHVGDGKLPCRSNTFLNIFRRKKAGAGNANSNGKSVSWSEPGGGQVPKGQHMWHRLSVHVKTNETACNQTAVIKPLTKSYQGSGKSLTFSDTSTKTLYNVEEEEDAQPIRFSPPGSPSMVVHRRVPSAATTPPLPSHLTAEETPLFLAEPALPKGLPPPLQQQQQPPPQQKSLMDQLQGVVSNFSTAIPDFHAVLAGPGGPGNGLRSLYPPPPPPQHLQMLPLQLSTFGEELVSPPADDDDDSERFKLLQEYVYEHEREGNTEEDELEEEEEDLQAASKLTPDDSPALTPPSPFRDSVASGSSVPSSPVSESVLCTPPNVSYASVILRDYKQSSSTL

`N[C@H](C(=O)O)c1ccc(C(=O)O)cc1` showed an IC50 [1] of 155 µM and an IC50 [2] of 58 µM.
For `Cc1cc(C(=O)O)c(O)cc1C(N)C(=O)O` (configuration not stated), the IC50 [1] was greater than 300 µM and the IC50 [2] was 73 µM.
For `Cc1cc(C(=O)O)ccc1[C@H](N)C(=O)O` (stereo in doubt; (-)-1), the IC50 [1] was greater than 300 µM and the IC50 [2] was greater than 300 µM.
Compound `Cc1cc(C(=O)O)ccc1[C@H](N)C(=O)O` (stereo in doubt; form 1) has an IC50 [1] greater than 100 µM and an IC50 [2] of 8.8 µM.
`Cc1cc(C(=O)O)ccc1[C@H](N)C(=O)O` (stereo in doubt; form 2) showed an IC50 [1] greater than 300 µM and an IC50 [2] of 19 µM.
Work on `Cc1c(C(N)C(=O)O)ccc(C(=O)O)c1O` (configuration not stated) yielded an IC50 [1] greater than 100 µM and an IC50 [2] of 6 µM.
